Measured values reported in patent US8536160B2, “Azaheterocyclyl derivatives of androstanes and androstenes as medicaments for cardiovascular disorders” (priority 2006, dated 2013).
Counter-ions that a name gives are not always drawn. Like-named read-outs stand apart in the source and are kept apart here.

Experiments:
[1] = molecular target: Dog Kidney Na+, K+-ATPase (Canis lupus familiaris, UniProt P50997); assay: Inhibition of the enzymatic activity of purified Na+,K+-ATPase (hydrolysis of 32P-ATP); assay type: biochemical
anesthetized guinea-pig = assay: Inotropic effect and lethal dose, slow intravenous infusion in anesthetized guinea-pig; assay type: in vivo; set-up: Maximum dose infused: unit not given here; conditions: for Emax / ED80 / ED (max): Cavia porcellus, iv, 1.5 h; for Emax: maximum increase in contractile force, read-out: Emax % increase in +dP/dTmax; for ED80: read-out: ED80 (inotropic potency, dose increasing +dP/dTmax by 80%); for ED (max): read-out: EDmax (dose inducing maximum positive inotropic effect); for % decrease from Emax after 20 min from the end of the infusion: duration of the inotropic effect; for Maximum dose infused: maximum dose infused in the survived animals
[2] = read-out: Na+, K+-ATPase Inhibition IC50
[3] = dog kidney enzyme, hydrolysis of 32P-ATP in presence and absence of compound, read-out: Na+, K+-ATPase Inhibition IC50
[4] = slow i.v. infusion over 90 minutes, anesthetized guinea-pig
[5] = slow i.v. infusion over 90 minutes

Molecule	IC50 ([1]; Na+, K+-ATPase Inhibition IC50) [nM]	IC50 [1, 3] [nM]	also measured
3α-[2-(Azetidin-3-yl)-(Z)-vinyl]androstane-6,7-dione formate [I-dh]	–	–	IC50 [1, 2]: 830 nM
3α-[2-(Pyrrolidin-3-(R)-yl)-(Z)-vinyl]androstane-6,7-dione formate [I-df]	–	–	IC50 [1, 2]: 360 nM
3β-(2(R,S)-Morpholinylcarbonyloxy)androstane-6,7-dione fumarate [I-cz]	–	–	IC50 [1, 2]: 12000 nM
3β-(2-(R,S)-piperazinylcarbonyloxy)androstane-6,7-dione dihydrochloride [I-da]	–	–	IC50 [1, 2]: 68000 nM
3β-(3-(R,S)-Piperidinylcarbonyloxy)androstane-6,7-dione hydrochloride [I-cv]	–	–	IC50 [1, 2]: 92000 nM
CC12CCC3C(CC(=O)C4CC(=NOC5CNC5)CCC43C)C1CCC2=O (mixture of isomers) [I-ab]	260	–	–
C[C@]12CC/C(=N\OC3CCNC3)CC1C(=O)C[C@@H]1[C@@H]2CC[C@]2(C)C(=O)CC[C@@H]12 (mixture of isomers) [I-ac, (E) 3-[3-(RS)-Pyrrolidinyl]oxyiminoandrostane-6,17-dione hydrochloride]	110	–	–
CC12CCC3C(CC(=O)C4CC(=NOCC5CCCN5)CCC43C)C1CCC2=O (mixture of isomers) [I-ah, hydrochloride]	23000	–	–
CC12CCC3C(CC(=O)C4CC(=NOCC5CCCN5)CCC43C)C1CCC2=O (mixture of isomers) [I-ai, hydrochloride]	11000	–	–
CC12CCC3C(CC(=O)C4CC(=NOC5CCCNC5)CCC43C)C1CCC2=O (mixture of isomers) [I-aj, (E) 3-[3′-(R,S)-Piperidinyl]oxyiminoandrostane-6,7-dione hydrochloride]	33000	–	–
CC12CCC3C(CC(O[N+](=O)[O-])C4CC(=NOC5CCNC5)CCC43C)C1CCC2=O (mixture of isomers) [I-ap, (E,Z) 3-[3-(R)-Pyrrolidinyl]oxyimino-17-oxoandrostane-6α-yl nitrate hydrochloride]	–	380	–
C=C1CC2C3CCC(=O)C3(C)CCC2C2(C)CCC(=NOC3CCNC3)CC12 (mixture of isomers) [I-aq, (E,Z) 3-[3-(R)-Pyrrolidinyl]oxyimino-6-methyleneandrostane-17-one hydrochloride]	46	–	–
CC12CCC3C(CC(CO)C4CC(=NOC5CCNC5)CCC43C)C1CCC2=O (mixture of isomers) [I-ar, (E,Z) 3-[3-(R)-Pyrrolidinyl]oxyimino-6α-hydroxymethylandrostan-17-one hydrochloride]	–	26	–
COCC1CC2C3CCC(=O)C3(C)CCC2C2(C)CCC(=NOC3CCNC3)CC12 (mixture of isomers) [I-as, (E,Z) 3-[3-(R)-Pyrrolidinyl]oxyimino-6α-methoxymethylandrostane-17-one hydrochloride]	–	320	–
CC12CCC3C(CC(=NO)C4CC(=NOC5CCNC5)CCC43C)C1CCC2=O (mixture of isomers) [I-av, (E,Z) 3-[3-(R)-Pyrrolidinyl]oxyimino-6(E)-hydroxyiminoandrostan-17-one hydrochloride]	–	–	Emax (anesthetized guinea-pig; [4]): 144%; ED80 (anesthetized guinea-pig; [4]): 1.49 µmol/kg; ED (max) (anesthetized guinea-pig; [4]): 4.3 µmol/kg; % decrease from Emax after 20 min from the end of the infusion (anesthetized guinea-pig; anesthetized guinea-pig): 100%; Dead/treated (anesthetized guinea-pig; [4]): 0/3; Maximum dose infused (anesthetized guinea-pig; [5]): 6.3
CC12CCC3C(CC(NC=O)C4CC(=NOC5CCNC5)CCC43C)C1CCC2=O (mixture of isomers) [I-ay, (E,Z) 3-[3-(R)-Pyrrolidinyl]oxyimino-6α-formamidoandrostane-17-one hydrochloride]	–	41	–
CC12CCC3C(CC4(CC4)C4CC(=NOC5CCNC5)CCC34C)C1CCC2=O (mixture of isomers) [I-ba, (Z,E) 3-(3-(R)-Pyrrolidinyloxyimino)-6-(spirocyclopropane)androstane-17-one hydrochloride]	–	220	–
CON=C1CC2C3CCC(=O)C3(C)CCC2C2(C)CCC(=NOC3CCN(C)C3)CC12 (mixture of isomers) [I-bf, (E,Z) 3-[3′-(S)-(1-Methyl)pyrrolidinyl]oxyimino-6-(E)-methoxyimino-androstane-17-one hydrochloride]	–	7600	–
CON=C1CC2C3CCC(=O)C3(C)CCC2C2(C)CCC(=NOC3CCN(C)C3)CC12 (mixture of isomers) [I-bg, (E,Z) 3-[3′-(R)-(1-Methyl)pyrrolidinyl]oxyimino-(E)-6-methoxyiminoandrostane-17-one hydrochloride]	–	5700	–
C[C@]12CC[C@H]3[C@@H](C/C(=N\O)[C@@]4(O)CC(=NO[C@H]5CCNC5)CC[C@]34C)[C@@H]1CCC2=O (mixture of isomers) [I-bq, (E,Z) 3-[3-(S)-Pyrrolidinyl]oxyimino-5α-hydroxy-6-(E)-hydroxyiminoandrostane-17-one hydrochloride]	–	–	Emax (anesthetized guinea-pig; [4]): 380%; ED80 (anesthetized guinea-pig; [4]): 0.59 µmol/kg; ED (max) (anesthetized guinea-pig; [4]): 3.72 µmol/kg; Maximum dose infused (anesthetized guinea-pig; [5]): 18.7

Molecule	IC50 ([1]; Na+, K+-ATPase Inhibition IC50) [nM]	IC50 [1, 3] [nM]	also measured
CON=C1CC2CC(=NOC3CCNC3)CCC2(C)C2CCC3(C)C(=O)CCC3C12 (mixture of isomers) [I-ce, (E,Z) 3-[3-(R)-Pyrrolidinyl]oxyimino-7(E)-methoxyiminoandrostan-17-one fumarate]	–	3000	–
C=CCON=C1CC2CC(=NOC3CCNC3)CCC2(C)C2CCC3(C)C(=O)CCC3C12 (mixture of isomers) [I-cf, (E,Z) 3-[3′-(R)-Pyrrolidinyl]oxyimino-7-(E)-allyloxyiminoandrostane-17-one fumarate]	–	4000	–
CC12CCC3C(C(CO)CC4CC(=NOC5CCNC5)CCC43C)C1CCC2=O (mixture of isomers) [I-ch, (E,Z) 3-[3′-(R)-Pyrrolidinyl]oxyimino-7α-hydroxymethylandrostane-17-one hydrochloride]	–	160	–
CC12CCC3C(C(CO)CC4CC(=NOC5CCNC5)CCC43C)C1CCC2=O (mixture of isomers) [I-ci, (E,Z) 3-[3′-(R)-Pyrrolidinyl]oxyimino-7β-hydroxymethylandrostane-17-one hydrochloride]	–	330	–
CC12CCC3C(C1CCC2=O)C1(CC1)CC1CC(=NOC2CCNC2)CCC13C (mixture of isomers) [I-co, (Z,E) 3-(3′-(R)-Pyrrolidinyloxyimino)-7-(spirocyclopropane)androstane-17-one hydrochloride]	24	–	–
CC12CCC3C(C(NC=O)CC4CC(=NOC5CCNC5)CCC43C)C1CCC2=O (mixture of isomers) [I-cp, (E,Z) 3-[3′-(R)-Pyrrolidinyl]oxyimino-7α-formamidoandrostane-17-one hydrochloride]	–	4600	–
CN1CCC(ON=C2CCC3(C)C(C2)C(CO)C(=O)C2C4CCC(=O)C4(C)CCC23)C1 (mixture of isomers) [I-ct, (E,Z) 3-[3′-(R)-(1-Methyl)pyrrolidinyl]oxyimino-6α-hydroxymethylandrostane-7,17-dione fumarate]	–	270	–
CC12CCC3C(CC(=O)C4CC(OC(=O)C5CCNC5)CCC43C)C1CCC2=O (mixture of isomers) [I-cy, 3β-(3(R,S)-Pirrolidinylcarbonyloxy)androstane-6,17-dione fumarate]	4200	–	–
C[C@]12CC[C@@H](SC3CCNC3)CC1C(=O)C[C@@H]1[C@@H]2CC[C@]2(C)C(=O)CC[C@@H]12 (mixture of isomers) [I-dc, 3α-[3-(RS)-Pyrrolidinylthio]androstane-6,17-dione fumarate]	–	–	IC50 [1, 2]: 95000 nM
COCC1CC2CC(=NOC3CCNC3)CCC2(C)C2CCC3(C)C(=O)CCC3C12 (mixture of isomers) [I-dm, (E,Z) 3-[3-(R)-Pyrrolidinyl]oxyimino-7α-methoxymethylandrostane-17-one hydrochloride]	–	8100	–
COC1CC2CC(=NOC3CCNC3)CCC2(C)C2CCC3(C)C(=O)CCC3C12 (mixture of isomers) [I-dn, (E,Z) 3-[3-(R)-Pyrrolidinyl]oxyimino-7α-methoxyandrostane-17-one fumarate]	–	5900	–
CC12CCC3C(CC(O)C4CC(=NOC5CCNC5)CCC43C)C1CCC2O (mixture of isomers) [I-do, (E,Z) 3-[3-(R)-Pyrrolidinyl]oxyiminoandrostane-6α,17β-diol hydrochloride]	490	–	–
C=C1CC2C3CCC(=O)C3(C)CCC2C2(C)CCC(=NOC3CCNC3)CC12O (racemic) [I-bk, (E,Z) 3-[3′-(S)-Pyrrolidinyl]oxyimino-5α-hydroxy-6-methylene-androstane-17-one fumarate]	480	–	–
CC12CCC3C(CC(=O)C4CC(=NOC5CCNC5)CCC43C)C1CCC2=O (single isomer, unassigned) [I-ad, hydrochloride]	830	–	–
CC12CCC3C(CC(=O)C4CC(=NOC5CCNC5)CCC43C)C1CCC2=O (single isomer, unassigned) [I-ag, hydrochloride]	110	–	–
CN1CCC(ON=C2CCC3(C)C(C2)C(=O)CC2C4CCC(=O)C4(C)CCC23)C1 (single isomer, unassigned) [I-ak, hydrochloride]	41000	–	–
CN1CCC(ON=C2CCC3(C)C(C2)C(=O)CC2C4CCC(=O)C4(C)CCC23)C1 (single isomer, unassigned) [I-al]	1300	–	–
CC12CCC3C(CC(O)C4CC(=NOC5CCNC5)CCC43C)C1CCC2=O (single isomer, unassigned) [I-ao, hydrochloride]	2300	–	–
C[C@H]1O[C@@H](O[C@H]2[C@@H](O)C[C@H](O[C@H]3[C@@H](O)C[C@H](O[C@H]4CC[C@@]5(C)[C@H](CC[C@@H]6[C@@H]5C[C@@H](O)[C@]5(C)[C@@H](C7=CC(=O)OC7)CC[C@]65O)C4)O[C@@H]3C)O[C@@H]2C)C[C@H](O)[C@@H]1O [digoxin, reference compound]	–	–	Emax (anesthetized guinea-pig; [4]): 158%; ED80 (anesthetized guinea-pig; [4]): 0.29 µmol/kg; ED (max) (anesthetized guinea-pig; [4]): 0.65 µmol/kg; % decrease from Emax after 20 min from the end of the infusion (anesthetized guinea-pig; anesthetized guinea-pig): 100%; Maximum dose infused (anesthetized guinea-pig; [5]): 1.16
